Molecular target: T1, pregnane X receptor (PXR) (Homo sapiens, UniProt O75469)
T1 construct: gene NR1I2
T1 sequence (O75469 106-434): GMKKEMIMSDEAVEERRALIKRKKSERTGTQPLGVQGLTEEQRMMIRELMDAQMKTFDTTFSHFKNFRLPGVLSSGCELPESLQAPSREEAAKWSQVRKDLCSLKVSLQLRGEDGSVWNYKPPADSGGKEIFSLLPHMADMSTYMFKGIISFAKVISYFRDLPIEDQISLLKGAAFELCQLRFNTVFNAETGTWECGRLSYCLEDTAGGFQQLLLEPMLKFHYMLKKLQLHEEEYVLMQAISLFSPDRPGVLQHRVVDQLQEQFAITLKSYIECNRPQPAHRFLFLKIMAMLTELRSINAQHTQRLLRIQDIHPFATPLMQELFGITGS
Experiment: biochemical

Kd: 6.6 µM
SMILES: COc1cc2c(c(OC)c1OC)-c1c(cc3c(c1OC)OCO3)CC(C)C(C)C2 (stereo not shown) [Sin B, Schisandrin B]

— PMC12681940, “Schisandrin B Targets PXR to Enhance Bile Acid Metabolism and Alleviate ANIT-Induced Cholestatic Liver Injury via Dual Pathways” (International Journal of Biological Sciences, 2026)
